Results on three substances are retold here after patent publication US7128910B2, “Moraxella catarrahalis outer membrane protein-106 polypeptide, gene sequences and uses thereof” (priority 1996, dated 2006).

The test concerns M. catarrhalis ATCC 49143. In words: Proteolytic digestion of intact cells followed by hemagglutination test. It is filed as cell-based, Moraxella catarrhalis. To be noted: intact cells digested 1 hour at room temperature. How it is done: All proteases were obtained from Sigma Chemicals (St. Louis, Mo.). Immediately following the protease treatment, cells were washed once in PBS and resuspended in 1 ml of PBS and the hemagglutinating activity was tested. Additionally, protease-treated bacterial cells were extracted with octyl glucoside so the outer membrane proteins could be resolved to identify specific proteins that may have been digested by the proteases.
Consider trypsin, for which the “Effect of protease treatment on hemagglutination activity” value (“Effect of protease treatment” for short) is listed as “partially destroyed hemagglutination activity”.

With chymotrypsin, the “Effect of protease treatment” value is recorded as “destroyed the hemagglutination activity”.

Take “proteinase V8: Protease from Sigma Chemicals”: the “Effect of protease treatment” value is listed as “did not affect hemagglutination activity”.
